Reference: patent US20100190845A1, “METHOD OF TREATING CANCER USING ATP SYNTHASE INHIBITORS” (NATIONAL TAIWAN UNIVERSITY, priority 2009, published 2010)
“Also recorded” adds a separate entry of the source. Where two headings read alike, the source gives them in different places.

Key:
[1] = system: MDAMB231 breast cancer cell line; assay: MTT assay, cell viability; format: cell-based; details: Homo sapiens, MDA-MB-231, MDAMB231, 48 hours
Description: (§1) Human breast cancer cell lines, MCF-7, MDA-MB231, T47D and human normal breast cell line MCF-10A, were obtained from the American Type Culture Collection (Manassas, Va.). Human breast cancer cell lines were maintained in DMEM at 37° C. with 5% CO2 (Gibco, Carlsbad, Calif., USA), 5% fetal bovine serum (Gibco), 50 units/mL penicillin, and 50 μg/mL streptomycin (Gibco). MCF-10A cells were culture in DMEM (Gibco), 0.01 mg/mL Insulin, 5 μg/mL Hydrocortisone.
(§2) Cytotoxic effects on the growth and viability of cells were determined using MTT (3(4,5-dimethylthiazol-2-yl)-2,5-diphenyltetrazolium bromide, a tetrazole) assay. 10^4 cells/mL were plated in 96-well plates and allowed to attach for 24 hours. Cells were treated with […] of aurovertin B, resveratrol and piceatannol for 48 hours. At the end of the incubation period, MTT reagent (10 μL) was added to each 100 μL of culture. After incubation for 4 hr at 37° C., the formed water insoluble formazan dye was solubilized by adding 100 μL of DMSO to the culture wells. The plates were further incubated for 15 min at room temperature, and optical density (OD) of the wells was determined using ELISA microplate reader at a test wavelength of 570 nm. All experiments were performed in triplicates.

[2] = system: T47D breast cancer cell line; assay: MTT assay, cell viability; format: cell-based; details: Homo sapiens, 48 hours
Description: as §1, §2

[3] = MTT assay, cell viability; format: cell-based, human; details: human; MCF-10A normal breast cells, same time points; read-out: cell viability rate
Description: as §1, §2

[4] = system: MCF-7 breast cancer cells; assay: MTT assay, cell viability; format: cell-based, human; details: MCF-7, 48 hours
Description: as §1, §2

[5] = system: normal breast cell line MCF-10A; assay: MTT assay, cell viability; format: cell-based, human; details: MCF-10A, under these concentrations
Description: as §1, §2

MCF-7 cells [6] = assay: Cell cycle analysis by flow cytometry; format: cell-based, human; details: 48 hours (control 63.1%)
Description: For the determination of cell cycle phase distribution, 3×10^5 MCF-7 cells were first exposed to various concentrations of aurovertin B in DMEM with 10% FBS for 48 hr by flow cytometric analysis. The cells were trypsinized, collected and fixed in 70% cold ethanol (−20° C.) overnight. After washing twice with PBS, cells were resuspended in PBS. RNase A (1 mg/mL) and PI (10 μg/mL) were added to the fixed cells for 30 min. The DNA content of cells was then analyzed with a FACSCanto instrument (Becton Dickinson, San Jose, Calif., USA). The percentage of cells in different phases of the cell cycle was calculated by MultiCycle (DeNovo software, Ontario, Canada).

MCF-7 cells [7] = assay: Annexin V-FITC/PI analysis of apoptosis; format: cell-based, human; details: MCF-7, 0.05-10 μM, 48 hours
Description: Flow cytometric analysis was performed to identify and quantify the apoptotic cells by using Annexin V-FITC/PI (propidium iodide) apoptosis detection kit (Santa Cruz Biotechnology, Santa Cruz, Calif., USA). […] After incubation, floating and adherent cells were harvested. Cells were washed carefully with cold PBS at 4° C. Cell pellets were resuspended in […] of binding buffer. Annexin-V FITC (0.2 μg/100 μL) and PI (10 μg/mL) was added to the cells and left for incubation in the dark for 15 min at room temperature. All data were acquired by flow cytometry using a FACSCanto cytometer (Becton Dickinson, San Jose, Calif., USA). The flow cytometric analysis was performed using FCS Express 3.0 (DeNovo software).

MCF-7 cells [8] = assay: DAPI staining of nuclear morphology; format: cell-based, human; details: MCF-7, 48 h, IC50 concentration
Description: After treatment for 48 h with DMSO (control) or aurovertin B (at their respective IC50 concentrations), cells were fixed in 4% paraformaldehyde for 15 min and stained with DAPI (2 μg/mL in PBS) for 15 min at 37° C. to detect apoptotic bodies (Sigma, St. Louis, Mo., USA). Results were determined by visual observation of nuclear morphology via fluorescence microscopy.

CL1-1 lung cancer cells = assay: cells; format: cell-based, human; details: for IC50: Homo sapiens
Excerpt: (§3) Apart from the traditional role in ATP production, ATP synthase may play critical roles in tumor cell metastases. Human lung adenocarcinoma cell lines CL1-1 and CL1-5 with different metastasis were obtained from the American Type Culture Collection (Manassas, Va.), and human normal lung cell line IMR-90 was obtained from Institute of Biomedical Sciences, Academia Sinica. The CL1-5 cell line is highly metastatic lung cancer cells, but the CL1-1 cell line is low metastatic lung cancer cells.
(§4) Human lung adenocarcinoma cell lines were maintained in DMEM at 37° C. with 5% CO2 (Gibco, Carlsbad, Calif., USA), 5% fetal bovine serum (Gibco), 50 units/mL penicillin, and 50 μg/mL streptomycin (Gibco). IMR-90 cells were culture in DMEM (Gibco), 0.01 mg/mL Insulin, 5 μg/mL Hydrocortisone.
(§5) As shown in FIG. 9 to FIG. 11, cell proliferation assays were in the presence of three F1-targeting H-ATP synthase inhibitors: aurovertin B, resveratol, and piceatannol. […] Thus, aurovertin B caused significant apotosis in CL1-1 and CL1-5 cells.

CL1-5 lung cancer cells = assay: cells; format: cell-based, human; details: for IC50: Homo sapiens
Excerpt: as §3, §4, §5

[9] = Viable cell number counting using trypan blue; format: cell-based; details: human; IMR-90 normal lung cells, same time points; read-out: cell viability rate
Excerpt: as §3, §4, §5

[10] = system: HeLa cervical cancer cells; details: Acta Biochimica Polonica 2004; cited from earlier work

SMILES | IC50 [1] | IC50 [2] | viability at 48 h [3] | IC50 ([4]; Homo sapiens, MCF7, 48 h) | IC50 [4] | cytotoxicity to normal cells [5] | percentage of cells in G0/G1 phase (MCF-7 cells [6]; MCF-7, 0.1 μM) | percentage of cells in G0/G1 phase (MCF-7 cells [6]; MCF-7, 1 μM) | percentage of cells in G0/G1 phase (MCF-7 cells [6]; MCF-7, 5 μM) | early and late apoptotic/necrotic cells (MCF-7 cells [7]) | morphological changes of the nuclei (MCF-7 cells [8]) | IC50 (CL1-1 lung cancer cells; CL1-1) | IC50 (CL1-5 lung cancer cells; CL1-5, CL1-5, highly metastatic lung cancer cells) | viability [9] | release of cytochrome c and apoptosis [10] | cell viability rate (CL1-1 lung cancer cells; CL1-1) | cell viability rate (CL1-5 lung cancer cells; CL1-5) | IC50 (CL1-1 lung cancer cells; CL-11, CL1-1, low metastatic lung cancer cells, read-out: IC50) | IC50 (CL1-5 lung cancer cells; CL1-5, highly metastatic lung cancer cells, read-out: IC50)
CC[C@H]1OC2(C)C(OC(C)=O)[C@@]1(C)OC(/C=C/C=C/C=C/c1oc(=O)cc(OC)c1C)[C@@H]2O (stereo partly drawn) [aurovertin B] | 5520 nM | 890 nM | ≥ 80% | 100 nM | 90 nM | no apparent cytotoxicity | 66.5% | 78.5% | 81.2% | dose-dependent increase in both early and late apoptotic/necrotic cells | condensation and shrinkage of nuclei | 100 to 500 nM | ~500 nM | ≥ 60% | didn't affect the release of cytochrome c and apoptosis; also recorded: can't cause apotosis |  |  |  | 
Oc1cc(O)cc(/C=C/c2ccc(O)c(O)c2)c1 [piceatannol] |  |  |  |  |  |  |  |  |  |  |  |  |  | 60% |  | ≥ 80% | ≥ 80% |  | 
Oc1ccc(C=Cc2cc(O)cc(O)c2)cc1 [resveratrol] |  |  |  |  |  |  |  |  |  |  |  |  |  | ≤ 60% |  |  |  | 10000 nM | ~5000 nM
